A short description of series [1]: Tensile properties (GB/T 1040-2006): tensile modulus at 100%, elongation at break, elastic modulus. The class given is physicochemical. As to conditions: PVC plastic with 35 parts plasticizer; 50 mm/min, 25°C. Here is the method: (§1) The aconitates and tributyl citrate prepared in the above examples and comparative examples were added as plasticizers to PVC resin to obtain PVC plastics. The PVC plastics include 100 parts of PVC resin, 35 parts of plasticizer, 2 parts of oxidized polyethylene wax, and 5 parts of octyltin maleate. The above raw materials were mixed and prepared using the same mixing process to obtain finished PVC products. The performance tests were performed on different plasticizers and the obtained PVC finished products in the above examples and comparative examples. […] Three points were selected for each group of samples, each point was tested once, and a median value was taken. • 2. […] Compatibility: tests were performed using a water value method. Since water molecules are polar, the compatibility between the plasticizer and water can characterize the compatibility between the plasticizer and polar materials (PVC, PLA, and nitrile rubber). When a certain plasticizer has good compatibility with water, it has good compatibility with PVC, and vice versa. In the experiment, 2.5 g of plasticizer and 25 g of acetone were added to a beaker, titrated with a burette filled with deionized water, and agitated while titrating until turbidity appears, and the volume of deionized water consumed was recorded. • 4. Glass transition temperature (Tg): the glass transition temperature was tested using a dynamic mechanical analyzer. Test conditions: nitrogen was taken as the carrier gas, at a test temperature range of -40 to 80°C, a heating rate of 3°C/min, and a frequency of 1 Hz.

The nature of series [2]: Chromaticity (platinum-cobalt colorimetry). The class given is physicochemical. As to conditions: aconitate/citrate products, Table 4; colour comparison at 25°C. As to the method: 3. Chromaticity: preparation of 500# platinum-cobalt colorimetric standard stock solution: 1.2450 g of potassium chloroplatinate and 1.0000 g of cobalt chloride were weighed, with an accuracy of 0.0002 g, the mixture was dissolved in 100 mL of hydrochloric acid, and then diluted to 1000 mL with distilled water. This solution is just the 500# colorimetric standard comparison solution.
Preparation of colorimetric standards below 500#: different amounts of the 500# stock solution was prepared, and diluted with distilled water to the volume of a colorimetric tube to prepare colorimetric standard solutions of any number. The calculation formula is as follows: V = (N×V1)/500 [formula]
In the formula, V is the volume of the 500# standard stock solution taken to prepare the N# colorimetric standard solution, in mL; V1 is the volume of the colorimetric tube used, in mL; and N is the number of the colorimetric standard solution to be prepared.
Color comparison determination was performed at 25°C.

Series [3] is described as follows: Acid value (KOH titration). It is filed as physicochemical. The settings on record: aconitate/citrate products, Table 4. As to the method:
The aconitates and citrates prepared in the above examples and comparative examples were tested for acid value, purity, chromaticity, yield, triester conversion rate, and water content. […] The mixture was neutralized with 0.02 mol·L^-1 potassium hydroxide aqueous solution until a faint pink color appears, and the consumed volume Vo was recorded. 1 g of the sample (accurate to 0.01 g) was weighed using a ground-neck conical flask, then one portion of the above neutralized solution was added. After the sample was completely dissolved, the sample was titrated with 0.02 mol·L^-1 potassium hydroxide-ethanol standard titration solution (the titration should be completed within 30 seconds) until a faint pink color appeared and persisted for 5 seconds without fading, which was considered as an end point. The consumed volume V was recorded. […] Chromatographic column: C18 column; injector: 10 µL micro-syringe; solvent: acetonitrile (HPLC grade); acquisition time: 15 min; mobile phase: 80% acetonitrile (HPLC grade) and 20% deionized water; injection volume: 1 µL; wavelength: 230 nm.

Series [4] in a line: Glass transition temperature (dynamic mechanical analyzer). The class given is physicochemical. The settings on record: PVC plastic with 35 parts plasticizer; -40 to 80°C, 3°C/min, 1 Hz. Here is the method:
as §1

A short description of series [5]: Water content (Karl Fischer moisture meter). It is filed as physicochemical. As to conditions: aconitate/citrate products, Table 4. An excerpt: 6. Water content: a Karl Fischer moisture meter is used to test the water content (retained to two decimal places).
Series [6] can be described thus: Hardness (Shore hardness tester, GB/T 531-2008). It is filed as physicochemical. As to conditions: PVC plastic: 100 parts PVC resin, 35 parts plasticizer, 2 parts oxidized polyethylene wax, 5 parts octyltin maleate. Here is the method:
as §1, with “The PVC plastics include 100 parts of PVC resin, 35 parts of plasticizer, 2 parts of oxidized polyethylene wax, and 5 parts of octyltin maleate.” left out

Series [7] in a line: Residual amounts of fat-soluble and water-soluble pigments (HPLC). The class given is physicochemical. The settings on record: aconitate/citrate products, Table 4. As to the method:
7. Residual amounts of fat-soluble pigments and water-soluble pigments: • a high-performance liquid chromatograph (HPLC) was used, and the instrument sensitivity and stability of the detector should comply with the provisions of GB/T 16631-2008. Chromatographic column: C18 column; injector: 10 µL micro-syringe; solvent: acetonitrile (HPLC grade); acquisition time: 15 min; mobile phase: 80% acetonitrile (HPLC grade) and 20% deionized water; injection volume: 1 µL; wavelength: 230 nm.
Test: the instrument was adjusted according to the above provisions. After the baseline was stable, 0.2 µL of the sample was injected using a micro-syringe, and the integrator or chromatographic workstation was started at the same time. A pigment concentration-integral area standard curve was established by testing the integral areas of pigments with different concentrations. When the pigment content was measured, the corresponding pigment integral area was automatically given by the instrument, and the pigment concentration was obtained by comparing with the standard curve. The ratio of the pigment concentration to the sample concentration is the pigment content.

Series [8] in a line: Compatibility (water value method). The class given is physicochemical. As to conditions: 2.5 g plasticizer and 25 g acetone titrated with deionized water until turbidity; Table 5. Here is the method: as §1
For series [9], the system named is Aspergillus terreus engineered strains. It is filed as cell-based. As to conditions: for effect on the yield of trans-Aconitic acid: additionally added at certain doses, shake flask; for increase of the yield of trans-Aconitic acid: 96 hours of shake flask fermentation. Here is the method: Additional supplementation experiments were performed on differential amino acids and vitamins between high-yield and low-yield corn steep liquor powders. Based on the high-yield corn steep liquor powder medium, fermentation verification was performed by adding differential amino acid components and vitamin components separately. Each group was set up with three parallel replicates. After 96 hours of shake flask fermentation, the supernatant of the fermentation broth was collected for quantitative analysis using HPLC detection.

Like-named read-outs stand apart in the source and are kept apart here.

In the case of `CCCCOC(=O)C=C(CC(=O)OCCCC)C(=O)OCCCC` [Example 32, tributyl aconitate], in series [1], the Elastic modulus came out at 133.4 MPa, the Elongation at break is reported as 241.2% and the “Tensile modulus at 100%” value stood at 15.6 MPa. In series [2], the Chromaticity is given as 60 Pt-Co. In [3], this compound displayed an Acid value of 0.05 KOH/g. In series [4], this compound had a Tg of 28.7 °C. In [5], this compound returned a Water content of 0.02%. In addition, the “Hardness/Shore D” value in [6] turned out to be 43 Shore D. Further, in [7], the “Residual amounts of fat-soluble pigments” value came to 382 ppm and the “Residual amounts of water-soluble pigments” value is recorded as 1325 ppm. This compound also had a Compatibility in series [8] of 13.1 mL.
In the case of `CCCCOC(=O)C=C(CC(=O)OCCCC)C(=O)OCCCC` [Example 33, tributyl aconitate], in series [1], the Elastic modulus was found to be 204.5 MPa, the Elongation at break came to 223.7% and the “Tensile modulus at 100%” value is 18.2 MPa. In [2], this compound came in with a Chromaticity of 100 Pt-Co. The same compound returned an Acid value in [3] of 0.05 KOH/g. The compound further had a Tg in [4] of 30.8 °C. The compound also registered a Water content in series [5] of 0.04%. Also, the “Hardness/Shore D” value in series [6] was found to be 47 Shore D. In series [7], the “Residual amounts of fat-soluble pigments” value was determined as 395 ppm and the “Residual amounts of water-soluble pigments” value worked out at 4064 ppm. This compound also registered a Compatibility in series [8] of 11.3 mL.
Consider `CCCCOC(=O)C=C(CC(=O)OCCCC)C(=O)OCCCC` [Example 34, tributyl aconitate], for which, in [1], the Elastic modulus is 77.9 MPa, the Elongation at break was 258.1% and the “Tensile modulus at 100%” value amounted to 14.7 MPa. Also, the Chromaticity in series [2] was found to be 50 Pt-Co. In [3], this compound returned an Acid value of 0.05 KOH/g. In [4], this compound gave a Tg of 27.7 °C. Besides, the Water content in series [5] is recorded as 0.03%. In addition, in series [6], the “Hardness/Shore D” value turned out to be 41 Shore D. In addition, in series [7], the “Residual amounts of fat-soluble pigments” value is 428 ppm and the “Residual amounts of water-soluble pigments” value turned out to be 864 ppm. Also, the Compatibility in [8] is recorded as 16.1 mL.
With `CCCCOC(=O)C=C(CC(=O)OCCCC)C(=O)OCCCC` [Example 35, tributyl aconitate], in [1], the Elastic modulus is listed as 348.6 MPa, the Elongation at break was 173.4% and the “Tensile modulus at 100%” value is given as 19.8 MPa. For the same compound, the Chromaticity in series [2] is recorded as 300 Pt-Co. Moreover, in [3], the Acid value was found to be 0.05 KOH/g. For the same compound, the Tg in [4] is 38.4 °C. This compound also gave a Water content in series [5] of 0.03%. Also, in [6], the “Hardness/Shore D” value worked out at 55 Shore D. For the same compound, in series [7], the “Residual amounts of fat-soluble pigments” value is reported as 3475 ppm and the “Residual amounts of water-soluble pigments” value is given as 5348 ppm. In [8], this compound gave a Compatibility of 8.1 mL.
Consider `CCCCOC(=O)C=C(CC(=O)OCCCC)C(=O)OCCCC` [Example 36, tributyl aconitate], for which, in series [1], the Elastic modulus is on record as 137.4 MPa, the Elongation at break is listed as 243.4% and the “Tensile modulus at 100%” value is given as 15.9 MPa. The same compound returned a Chromaticity in [2] of 60 Pt-Co. The Acid value in [3] stood at 0.05 KOH/g. Moreover, the Tg in series [4] amounted to 29.7 °C. In series [5], this compound yielded a Water content of 0.04%. Further, the “Hardness/Shore D” value in series [6] is 43 Shore D. In series [7], the “Residual amounts of fat-soluble pigments” value stood at 836 ppm and the “Residual amounts of water-soluble pigments” value is reported as 1368 ppm. This compound also returned a Compatibility in [8] of 13.4 mL.
For `NC(=O)CC[C@H](N)C(=O)O` [L-glutamine], the “effect on the yield of trans-Aconitic acid” value (“effect on the yield” below) in [9] was “varying degrees of decrease”.
For the compound `NCC(=O)O` [L-glycine], the “effect on the yield” value in series [9] is recorded as “varying degrees of decrease”.
`CC[C@H](C)[C@H](N)C(=O)O` [L-isoleucine]: the “effect on the yield” value in series [9] is listed as “varying degrees of decrease”.
For the compound `CC(C)C[C@H](N)C(=O)O` [L-leucine], the “increase of the yield of trans-Aconitic acid” value in [9] (addition of 0.125 g/L) is 42%.
`NCCCC[C@H](N)C(=O)O` [L-lysine]: the “effect on the yield” value in series [9] was “varying degrees of decrease”.
On the same count and under the same terms, the result for `O=C(O)[C@@H]1CCCN1` [L-proline] reads “varying degrees of decrease”.
For `O=C(O)CCCC[C@@H]1SC[C@@H]2NC(=O)N[C@@H]21` [biotin-vitamin B7, biotin], in [9] (addition of 0.11 g/L), the “increase of the yield of trans-Aconitic acid” value is on record as 17.5%.
For the compound `CC(O)C(=O)O` (stereo not drawn) [lactic acid], in [9], the “effect on the yield” value is listed as “varying degrees of decrease”.

The values are drawn from patent EP4715056A1, “BIO-BASED TRANS-ACONITATE, PREPARATION METHOD THEREFOR AND USE THEREOF” (Qingdao Institute of Bioenergy and Bioprocess Technology, …, priority 2023, dated 2024).
